According to ChEMBL document CHEMBL2069185, “Eunicidiol, an anti-inflammatory dilophol diterpene from Eunicea fusca” (J Nat Prod, 2012):

Columns and labels:
[1] = test system: Mus musculus; assay: Antiinflammatory activity in CD1 mouse ear edema model assessed as reduction in phorbol myristate acetate-induced edema administered topically at right ear 1 hr before phorbol myristate acetate challenge and measured 6 to 24 hrs post dose; format: functional
[2] = test system: Mus musculus; assay: Toxicity in CD1 mouse model phorbol myristate acetate-induced ear edema model at 0.1 mg/ear administered topically at right ear 1 hr before phorbol myristate acetate challenge and measured 24 hrs post dose; format: organism-based; settings: in vivo, topical_or_ocular
[3] = test system: Mus musculus; assay: Antiinflammatory activity in CD1 mouse ear edema model assessed as reduction in phorbol myristate acetate-induced edema at 0.1 mg/ear administered topically at right ear 1 hr before phorbol myristate acetate challenge and measured 24 hrs post dose; format: functional

SMILES	inhibition (INH) [1]	Activity [2]	inhibition (INH) [3]
CC(=O)O[C@@H]1[C@@H](O[C@H]2CC[C@H](C)[C@@]3(C)C[C@@H](/C(C)=C/C=C/C(C)(C)O)CC[C@H]23)OC[C@@H](O)[C@H]1O	85%	–	–
C=C1CC/C=C(\C)CC[C@H](/C(C)=C/C=C/C(C)(C)O)C[C@H]1O (relative stereo)	–	Non-toxic	–
C/C1=C\C[C@@H](/C(C)=C/C=C/C(C)(C)O)CC/C(C)=C/CC1 [EUNICOL]	–	Non-toxic	0.1%
C=C[C@@]1(C)CC[C@H](/C(C)=C/C=C/C(C)(C)O)C[C@@H]1C(=C)C [FUSCOL]	–	Non-toxic	–
C=C[C@@]1(C)CC[C@H](/C(C)=C/C=C/C(C)(C)O[C@@H]2OC[C@@H](O)[C@@H](O)[C@@H]2O)C[C@@H]1C(=C)C [FUSCOSIDE B]	52%	–	–
